Experimental data published in ChEMBL document CHEMBL1201862, “PubChem BioAssay data set” (2004).
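Assay format: 96-well plates, 48-hour exposure. At the GI50, growth is halved.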 Activity calls are given as the source filed them. No stated cut-off is given here; in the data, active = GI50 up to about 1.1 µM and inactive = higher.

What was measured:
Experiment in all cases: NCI anticancer screen, dose series, 48 h
MOLT-4 = tested on: MOLT-4
A498 = tested on: A498
HOP-92 = tested on: HOP-92
SNB-19 = tested on: SNB-19
M14 = tested on: M14
NCI/ADR-RES = tested on: NCI/ADR-RES
SN12C = tested on: SN12C
MDA-N = tested on: MDA-N
SK-MEL-28 = tested on: SK-MEL-28
T47D = tested on: T47D
MDA-MB-435 = tested on: MDA-MB-435
Hs-578T = tested on: Hs-578T
HCC 2998 = tested on: HCC 2998
DU-145 = tested on: DU-145
PC-3 = tested on: PC-3
MCF7 = tested on: MCF7
NCI-H226 = tested on: NCI-H226
BT-549 = tested on: BT-549

SMILES | GI50 (MOLT-4) | GI50 (A498) | GI50 (HOP-92) | GI50 (SNB-19) | GI50 (M14) | GI50 (NCI/ADR-RES) | GI50 (SN12C) | GI50 (MDA-N) | GI50 (SK-MEL-28) | GI50 (T47D) | GI50 (MDA-MB-435) | GI50 (Hs-578T) | GI50 (HCC 2998) | GI50 (DU-145) | GI50 (PC-3) | GI50 (MCF7) | GI50 (NCI-H226) | GI50 (BT-549)
CCOP(=O)(OCC)C(Cc1c[nH]c2ccccc12)C(=O)O (configuration not stated) | > 100 µM (inactive) | > 100 µM (inactive) | > 100 µM (inactive) | > 100 µM (inactive) | > 100 µM (inactive) | > 100 µM (inactive) | > 100 µM (inactive) | > 100 µM (inactive) | > 100 µM (inactive) | > 100 µM (inactive) | > 100 µM (inactive) | > 100 µM (inactive) | > 100 µM (inactive) | > 100 µM (inactive) | > 100 µM (inactive) | 37.2 µM (inactive) | > 100 µM (inactive) | 
Cc1cc(S(=O)(=O)Nc2nncn2-c2ccc(Cl)cc2)c(S)cc1Cl | > 10 µM (inactive) | > 10 µM (inactive) |  | > 10 µM (inactive) | > 10 µM (inactive) | > 10 µM (inactive) | > 10 µM (inactive) | > 10 µM (inactive) | > 10 µM (inactive) | > 10 µM (inactive) | > 10 µM (inactive) | > 10 µM (inactive) | > 10 µM (inactive) | > 10 µM (inactive) | > 10 µM (inactive) | > 10 µM (inactive) | > 10 µM (inactive) | > 10 µM (inactive)
CC(NC(=O)c1ccc(OP(=O)(OCC2=CC(=O)c3ccccc3C2=O)N(C)CCCCCl)cc1)c1ccc(OCC2CCCCC2)c(C(N)=O)c1 (configuration not stated) | 12.3 µM (inactive) |  | 0.0244 µM (active) | 14.4 µM (inactive) | 3.32 µM (inactive) | 14.8 µM (inactive) | 13.4 µM (inactive) | 2.72 µM (inactive) | 14.2 µM (inactive) | 0.0891 µM (active) | 2.47 µM (inactive) | 2.52 µM (inactive) | 0.0149 µM (active) | 3.5 µM (inactive) | 14.2 µM (inactive) | 11.4 µM (inactive) | 11.1 µM (inactive) | 
CNNC(=NS(=O)(=O)c1cc(C#N)c(NNC)cc1S)NNC | > 10 µM (inactive) | > 10 µM (inactive) | > 10 µM (inactive) | > 10 µM (inactive) | > 10 µM (inactive) | > 10 µM (inactive) | > 10 µM (inactive) | > 10 µM (inactive) | > 10 µM (inactive) | > 10 µM (inactive) |  | > 10 µM (inactive) | > 10 µM (inactive) | > 10 µM (inactive) | > 10 µM (inactive) | > 10 µM (inactive) | > 10 µM (inactive) | > 10 µM (inactive)
CC(=O)OCCCCn1cnc2c(Cl)nc(Nc3ccccc3)nc21 | > 100 µM (inactive) | > 100 µM (inactive) |  |  |  | > 100 µM (inactive) | > 100 µM (inactive) | > 100 µM (inactive) | > 100 µM (inactive) | > 100 µM (inactive) | > 100 µM (inactive) | > 100 µM (inactive) | 42.9 µM (inactive) | > 100 µM (inactive) | > 100 µM (inactive) | > 100 µM (inactive) | > 100 µM (inactive) | > 100 µM (inactive)
O=C1c2ccccc2C(=O)c2cc(/N=N/c3c(O)ccc4ccccc34)ccc21 | > 100 µM (inactive) | > 100 µM (inactive) | > 100 µM (inactive) | > 100 µM (inactive) | > 100 µM (inactive) | > 100 µM (inactive) | > 100 µM (inactive) | > 100 µM (inactive) | > 100 µM (inactive) | > 100 µM (inactive) | > 100 µM (inactive) | 27.7 µM (inactive) |  | > 100 µM (inactive) | > 100 µM (inactive) |  | > 100 µM (inactive) | > 100 µM (inactive)
CN(COC(=O)C(C)(C)C)c1nc(N(C)COC(=O)C(C)(C)C)nc(N(C)COC(=O)C(C)(C)C)n1 | 24.8 µM (inactive) | > 100 µM (inactive) |  | > 100 µM (inactive) | 19 µM (inactive) | 44.3 µM (inactive) | > 100 µM (inactive) | 25.7 µM (inactive) | > 100 µM (inactive) | 56.6 µM (inactive) |  | > 100 µM (inactive) | 34.3 µM (inactive) | 22.4 µM (inactive) | 77.8 µM (inactive) | 33.8 µM (inactive) | > 100 µM (inactive) | 34.4 µM (inactive)
O=[N+]([O-])/C=C/c1cn(CCCCCCCCn2cc(/C=C/[N+](=O)[O-])c3ccccc32)c2ccccc12 | > 10 µM (inactive) | > 10 µM (inactive) | > 10 µM (inactive) | > 10 µM (inactive) | > 10 µM (inactive) | > 10 µM (inactive) | > 10 µM (inactive) | 0.61 µM (active) | > 10 µM (inactive) | > 10 µM (inactive) | 0.327 µM (active) | 6.92 µM (inactive) | 7.59 µM (inactive) | > 10 µM (inactive) | > 10 µM (inactive) |  | > 10 µM (inactive) | 
Cc1c2c(n(CCN(C)C)c1C)NN=C(C#N)S2(=O)=O | > 100 µM (inactive) |  |  | > 100 µM (inactive) | > 100 µM (inactive) | > 100 µM (inactive) | > 100 µM (inactive) | > 100 µM (inactive) | > 100 µM (inactive) | > 100 µM (inactive) | > 100 µM (inactive) | > 100 µM (inactive) | > 100 µM (inactive) | > 100 µM (inactive) | > 100 µM (inactive) | > 100 µM (inactive) | > 100 µM (inactive) | 
CCN(CC)c1ccc2cc(C(=O)Nc3nc(C45CC6CC(CC(C6)C4)C5)cs3)c(=O)oc2c1 | > 100 µM (inactive) | > 100 µM (inactive) | > 100 µM (inactive) | > 100 µM (inactive) |  | > 100 µM (inactive) | > 100 µM (inactive) | > 100 µM (inactive) | > 100 µM (inactive) |  | > 100 µM (inactive) | > 100 µM (inactive) | > 100 µM (inactive) | > 100 µM (inactive) | > 100 µM (inactive) | > 100 µM (inactive) | > 100 µM (inactive) | > 100 µM (inactive)
O=c1[nH]c2cc(C(F)(F)F)ccc2nc1C(F)(F)F | 38.4 µM (inactive) | 41.3 µM (inactive) | 16.6 µM (inactive) | 35.6 µM (inactive) | 45.1 µM (inactive) | 37.9 µM (inactive) | 29.7 µM (inactive) | 32.7 µM (inactive) | 68.9 µM (inactive) | 36.6 µM (inactive) | 34 µM (inactive) |  | 49.7 µM (inactive) | 33.8 µM (inactive) | 37.8 µM (inactive) | 53.6 µM (inactive) | 28.6 µM (inactive) | 44.2 µM (inactive)
COc1ccc(-c2c3c([nH]c(=S)c2C#N)CC(C)(C)CC3=O)cc1 | > 100 µM (inactive) | 55.6 µM (inactive) | > 100 µM (inactive) | > 100 µM (inactive) | > 100 µM (inactive) |  | > 100 µM (inactive) | > 100 µM (inactive) | > 100 µM (inactive) | 59.6 µM (inactive) |  | > 100 µM (inactive) | > 100 µM (inactive) | > 100 µM (inactive) | > 100 µM (inactive) | > 100 µM (inactive) | > 100 µM (inactive) | > 100 µM (inactive)
O=c1cc(NNc2ccccc2)[nH]c(=O)[nH]1 | 27.2 µM (inactive) | > 100 µM (inactive) |  | 21.1 µM (inactive) |  | 22.8 µM (inactive) | 25.9 µM (inactive) | 20.2 µM (inactive) | 11.2 µM (inactive) | > 10 µM (inactive) | 19 µM (inactive) | 80.7 µM (inactive) | 19.9 µM (inactive) | > 100 µM (inactive) | 21.9 µM (inactive) | 12.9 µM (inactive) | 19 µM (inactive) | 
COC(=O)C1CCC(=O)N1C(c1ccc2c(c1)OCO2)c1cc(OC)c(OC)c(OC)c1 (configuration not stated) | > 100 µM (inactive) | > 100 µM (inactive) | > 100 µM (inactive) | > 100 µM (inactive) | > 100 µM (inactive) |  | > 100 µM (inactive) | > 100 µM (inactive) | > 100 µM (inactive) |  | > 100 µM (inactive) | > 100 µM (inactive) | > 100 µM (inactive) | > 100 µM (inactive) | > 100 µM (inactive) | > 100 µM (inactive) | > 100 µM (inactive) | > 100 µM (inactive)
O=C1OC(c2ccc(O)cc2)(c2ccc(O)cc2)c2ccc(Cl)c3cccc1c23.O=C1OC(c2ccc(O)cc2)(c2ccc(O)cc2)c2cccc3c(Cl)ccc1c23 |  | 19.1 µM (inactive) | 24.2 µM (inactive) | 23.1 µM (inactive) | 10 µM (inactive) | 11.7 µM (inactive) | 8.47 µM (inactive) | 11.8 µM (inactive) | 4.09 µM (inactive) |  | 9.46 µM (inactive) | 12.1 µM (inactive) |  | 75 µM (inactive) | 3.48 µM (inactive) | 13.6 µM (inactive) | 12.9 µM (inactive) | 11.8 µM (inactive)
Cc1ncc([N+](=O)[O-])n1CC[N+](C)([O-])CCCCn1ccnc1[N+](=O)[O-] (configuration not stated) | > 100 µM (inactive) | > 100 µM (inactive) |  |  | > 100 µM (inactive) | > 100 µM (inactive) | > 100 µM (inactive) | > 100 µM (inactive) | > 100 µM (inactive) | > 100 µM (inactive) | > 100 µM (inactive) | > 100 µM (inactive) |  | > 100 µM (inactive) | > 100 µM (inactive) | > 100 µM (inactive) | > 100 µM (inactive) | > 100 µM (inactive)
COc1ccc(-c2cc(=O)c3c(OC)c(O)c(OC)cc3o2)cc1 | 59.3 µM (inactive) | 30 µM (inactive) | 20.9 µM (inactive) | 58.7 µM (inactive) | 58.3 µM (inactive) | 29.1 µM (inactive) | 26.9 µM (inactive) | 47.3 µM (inactive) | > 100 µM (inactive) | 23.1 µM (inactive) | 42.4 µM (inactive) | 40.4 µM (inactive) | 47 µM (inactive) | 49.3 µM (inactive) |  | 42.7 µM (inactive) | 70 µM (inactive) | 55.3 µM (inactive)
